The source of these data is EP2140864A2 (H. Lundbeck A/S, priority 2001, dated 2002).

In one test the target is T1, human GAL1 receptor (Homo sapiens, UniProt P47211).
T1 construct: expressed in transfected cells
T1 sequence (P47211 1-349): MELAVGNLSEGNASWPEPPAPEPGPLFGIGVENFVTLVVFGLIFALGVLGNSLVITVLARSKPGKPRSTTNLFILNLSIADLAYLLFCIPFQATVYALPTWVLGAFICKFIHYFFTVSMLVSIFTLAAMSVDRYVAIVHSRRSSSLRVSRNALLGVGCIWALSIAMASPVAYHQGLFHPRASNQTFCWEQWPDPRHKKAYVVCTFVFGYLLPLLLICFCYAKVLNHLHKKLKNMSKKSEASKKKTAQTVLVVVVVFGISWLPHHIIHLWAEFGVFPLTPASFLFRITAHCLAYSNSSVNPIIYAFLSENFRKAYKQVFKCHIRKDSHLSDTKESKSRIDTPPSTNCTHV
Nature of the test: Radioligand binding at cloned human GAL1 receptor. To be noted: indolones, read-out: Ki GalR1. On the procedure:
The binding properties of the pyrimidines of the present invention were evaluated at the cloned human galanin receptors, GAL1, GAL2, and GAL3, using protocols described herein. […]
(§1) LM(tk-) cells were stably transfected with the human GAL1 or GAL3 receptor. CHO cells were stably transfected with the human GAL2 receptor.
(§2) cDNAs for the human and rat GAL1, and human and rat GAL3 receptors were transfected with a G-418 resistant gene into the mouse fibroblast LM(tk-) cell line by a calcium phosphate transfection method (Cullen, 1987). Stably transfected cells were selected with G-418. Human and rat GAL2 receptors were similarly transfected into CHO cells.
(§3) Membranes were harvested from stably transfected LM(tk-) cells. Adherent cells were washed twice in ice-cold phosphate buffered saline (138 mM NaCl, 8.1 mM Na2HPO4, 2.5 mM KCl, 1.2 mM KH2PO4, 0.9 mM CaCl2, 0.5 mM MgCl2, pH 7.4) and lysed by sonication in ice-cold sonication buffer (20 mM Tris-HCl, 5 mM EDTA, pH 7.7). Large particles and debris were cleared by low speed centrifugation (200 x g, 5 min, 4°C). Membranes were collected from the supernatant fraction by centrifugation (32,000 x g, 18 min, 4°C), washed with ice-cold hypotonic buffer, and collected again by centrifugation (32,000 x g, 18 min, 4°C). The final membrane pellet was resuspended by sonication into a small volume of ice-cold binding buffer (-1 ml for every 5 plates: 10 mM NaCl, 20 mM HEPES, 0.22 mM KH2PO4, 1.26 mM CaCl2, 0.81 mM MgSO4, pH 7.4). Protein concentration was measured by the Bradford method (Bradford, 1976) using Bio-Rad Reagent, with bovine serum albumin as a standard. Membranes were held on ice for up to one hour and used fresh, or flash frozen and stored in liquid nitrogen. Membranes were prepared similarly from CHO cells.
(§4) Galanin Recentors: Binding assays were performed according to the following published methods: human GAL3 (PCT International Publication No. WO 98/15570), human GAL1 (PCT International Publication No. WO 95/2260), human GAL2 (PCT International Publication No. WO 97/26853).
(§5) Binding data were analyzed using nonlinear regression and statistical techniques available in the GraphPAD Prism package (San Diego, CA). Enzymatic assay data were derived from a standard curve of reference compound data.
In the case of `Cc1ccc(N=C2C(=O)N(c3ccccc3)c3ccccc32)cc1` [Example 96], the Ki is greater than 10000 nM.
Still for that read-out and setting: the same measure for `Cc1cc(C)cc(N=C2C(=O)N(c3ccccc3)c3ccccc32)c1` [Example 104]: greater than 10000 nM; for `O=C1C(=Nc2ccc(Oc3ccccc3)cc2)c2ccccc2N1c1ccccc1` [Example 100, 3-[(4-PHENOXYPHENYL)IMINO]-1-PHENYL-1,3-DIHYDRO-2H-INDOL-2-ONE]: greater than 10000 nM; for `COc1ccccc1N=C1C(=O)N(c2ccccc2)c2ccccc21` [Example 91, 3-[(2-METHOXYPHENYL)IMINO]-1-PHENYL-1,3-DIHYDRO-2H-INDOL-2-ONE]: greater than 10000 nM.
The same measure, in the same setting: the same measure for `Cc1cccc(N=C2C(=O)N(c3ccccc3)c3ccccc32)c1` [Example 93]: greater than 10000 nM; for `C=CCN1C(=O)C(=Nc2cc(Cl)cc(Cl)c2)c2ccccc21` [Example 106, 1-ALLYL-3-[(3,5-DICHLOROPHENYL)IMINO]-1,3-DIHYDRO-2H-INDOL-2-ONE]: greater than 10000 nM.

The test is the same for the next values; noted with them: pyrimidines, read-out: Ki GalR1.
Consider `Cc1ccc(Nc2cc(N(C)C)nc(N3CCOCC3c3ccccc3)n2)cc1` (stereo not drawn) [Example 82], for which the Ki was greater than 5000 nM.
Turning to `CN(C)c1cc(NC2CC3CCC2(C)C3(C)C)nc(Nc2ccccc2)n1` (stereo not drawn) [Example 70], the Ki was greater than 5000 nM.
As to `COCCN(c1nc(Nc2ccc(C)cc2)cc(N(C)C)n1)C1CCCCC1` [Example 74], the inhibition constant Ki was determined as 2290 nM.
For `CN(C)c1cc(NC2CC3CCC2C3)nc(Nc2ccccc2)n1` (stereo not drawn) [Example 69], the Ki was greater than 5000 nM.
Turning to `CN(C)c1cc(Nc2ccc(Cl)cc2)nc(Nc2ccccc2)n1` [Example 58], the Ki is greater than 5000 nM.
Consider `Cc1ccc(Nc2cc(N3CCCCC3)nc(N3CCOC(c4ccccc4)C3)n2)cc1` (stereo not drawn) [Example 47], for which the Ki is greater than 5000 nM.
As for `Cc1ccc(Nc2cc(N3CCCCC3)nc(N3CCOCC3c3ccccc3)n2)cc1` (stereo not drawn) [Example 46], the inhibition constant (Ki) is greater than 5000 nM.
Take `Cc1ccc(Nc2cc(N3CCCCC3)nc(N3CCN(c4c(C)cccc4C)CC3)n2)cc1` [Example 27]: the Ki was determined as 2690 nM.
Still for that read-out and setting: the same measure for `Cc1ccc(Nc2cc(N3CCCCC3)nc(N3CCCC3)n2)cc1` [Example 38]: 2900 nM.

The next test concerns the target T2, human GAL3 receptor (Homo sapiens, UniProt O60755).
T2 construct: expressed in transfected cells
T2 sequence (O60755 1-368): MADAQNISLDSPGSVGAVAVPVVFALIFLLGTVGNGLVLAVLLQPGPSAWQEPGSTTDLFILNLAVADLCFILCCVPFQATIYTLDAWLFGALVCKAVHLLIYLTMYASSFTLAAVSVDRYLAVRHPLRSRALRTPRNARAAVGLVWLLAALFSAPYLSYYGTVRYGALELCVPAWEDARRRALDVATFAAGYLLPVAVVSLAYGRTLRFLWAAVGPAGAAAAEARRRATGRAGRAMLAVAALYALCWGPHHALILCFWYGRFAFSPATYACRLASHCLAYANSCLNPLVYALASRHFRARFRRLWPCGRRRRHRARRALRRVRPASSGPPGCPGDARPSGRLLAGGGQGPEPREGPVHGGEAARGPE
Nature of the test: Radioligand binding at cloned human GAL3 receptor. To be noted: indolones, cloned human receptor; read-out: Ki GalR3. An outline of the steps:
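Compound vehicle, as final assay concentration, was 3% DMSO (indolones) or 1% ethanol/0.09% polypuronic acid F-127 (pyrimidines). Binding measured on fresh or frozen membranes of stably transfected LM(tk-) mouse fibroblasts carrying cloned human GAL3, in pH 7.4 HEPES buffer; values derived by nonlinear regression.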
On to `Cc1ccc(N=C2C(=O)N(c3ccccc3)c3ccccc32)cc1` [Example 96], for which the Ki came to 111 nM.
Take `Cc1cc(C)cc(N=C2C(=O)N(c3ccccc3)c3ccccc32)c1` [Example 104]: the Ki was determined as 143 nM.
On the same count and under the same terms, for `O=C1C(=Nc2ccc(Oc3ccccc3)cc2)c2ccccc2N1c1ccccc1` [Example 100, 3-[(4-PHENOXYPHENYL)IMINO]-1-PHENYL-1,3-DIHYDRO-2H-INDOL-2-ONE] the value was 90 nM; for `COc1ccccc1N=C1C(=O)N(c2ccccc2)c2ccccc21` [Example 91, 3-[(2-METHOXYPHENYL)IMINO]-1-PHENYL-1,3-DIHYDRO-2H-INDOL-2-ONE], 527 nM.
As for `Cc1cccc(N=C2C(=O)N(c3ccccc3)c3ccccc32)c1` [Example 93], the inhibitory constant (Ki) amounted to 171 nM.
As to `C=CCN1C(=O)C(=Nc2cc(Cl)cc(Cl)c2)c2ccccc21` [Example 106, 1-ALLYL-3-[(3,5-DICHLOROPHENYL)IMINO]-1,3-DIHYDRO-2H-INDOL-2-ONE], the Ki turned out to be 62 nM.

Staying with this test, now noted: pyrimidines, cloned human receptor; read-out: Ki GalR3.
For the molecule `Cc1ccc(Nc2cc(N(C)C)nc(N3CCOCC3c3ccccc3)n2)cc1` (stereo not drawn) [Example 82], the inhibition constant Ki was found to be 232 nM.
Same read-out and setting: for `CN(C)c1cc(NC2CC3CCC2(C)C3(C)C)nc(Nc2ccccc2)n1` (stereo not drawn) [Example 70] the value was 476 nM.
On the same count and under the same terms, the same measure for `COCCN(c1nc(Nc2ccc(C)cc2)cc(N(C)C)n1)C1CCCCC1` [Example 74]: 47 nM.
On the same count and under the same terms, the same measure for `CN(C)c1cc(NC2CC3CCC2C3)nc(Nc2ccccc2)n1` (stereo not drawn) [Example 69]: 417 nM; for `CN(C)c1cc(Nc2ccc(Cl)cc2)nc(Nc2ccccc2)n1` [Example 58]: 783 nM; for `Cc1ccc(Nc2cc(N3CCCCC3)nc(N3CCOC(c4ccccc4)C3)n2)cc1` (stereo not drawn) [Example 47]: 115 nM.
`Cc1ccc(Nc2cc(N3CCCCC3)nc(N3CCOCC3c3ccccc3)n2)cc1` (stereo not drawn) [Example 46]: the Ki amounted to 577 nM.
The same measure, in the same setting: the same measure for `Cc1ccc(Nc2cc(N3CCCCC3)nc(N3CCN(c4c(C)cccc4C)CC3)n2)cc1` [Example 27]: 63 nM; for `Cc1ccc(Nc2cc(N3CCCCC3)nc(N3CCCC3)n2)cc1` [Example 38]: 320 nM.

The target in another test is T3, human GAL2 receptor (Homo sapiens, UniProt O43603).
T3 construct: expressed in transfected cells
T3 sequence (O43603 1-387): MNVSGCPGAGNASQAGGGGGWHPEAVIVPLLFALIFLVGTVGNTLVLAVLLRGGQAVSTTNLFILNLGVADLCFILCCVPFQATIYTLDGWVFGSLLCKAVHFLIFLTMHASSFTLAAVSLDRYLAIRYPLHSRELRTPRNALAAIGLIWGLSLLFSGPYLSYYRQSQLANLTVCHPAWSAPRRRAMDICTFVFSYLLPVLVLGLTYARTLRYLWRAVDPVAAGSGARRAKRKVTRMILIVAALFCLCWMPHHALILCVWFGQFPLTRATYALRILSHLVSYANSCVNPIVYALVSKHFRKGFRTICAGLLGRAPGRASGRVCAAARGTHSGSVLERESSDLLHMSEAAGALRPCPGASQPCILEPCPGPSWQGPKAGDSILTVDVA
Description: Radioligand binding at cloned human GAL2 receptor. To be noted: indolones, read-out: Ki GalR2. How it is done: The binding properties of the pyrimidines of the present invention were evaluated at the cloned human galanin receptors, GAL1, GAL2, and GAL3, using protocols described herein.
The binding properties of the indolones of the present invention were evaluated at the cloned human galanin receptors, GAL1, GAL2, and GAL3, using protocols described herein.
as §1, §2, §3, §4, §5
Turning to `Cc1ccc(N=C2C(=O)N(c3ccccc3)c3ccccc32)cc1` [Example 96], the inhibition constant (Ki) was greater than 10000 nM.
On the same count and under the same terms, for `Cc1cc(C)cc(N=C2C(=O)N(c3ccccc3)c3ccccc32)c1` [Example 104] the value was greater than 10000 nM; for `O=C1C(=Nc2ccc(Oc3ccccc3)cc2)c2ccccc2N1c1ccccc1` [Example 100, 3-[(4-PHENOXYPHENYL)IMINO]-1-PHENYL-1,3-DIHYDRO-2H-INDOL-2-ONE], greater than 10000 nM.
In the case of `COc1ccccc1N=C1C(=O)N(c2ccccc2)c2ccccc21` [Example 91, 3-[(2-METHOXYPHENYL)IMINO]-1-PHENYL-1,3-DIHYDRO-2H-INDOL-2-ONE], the Ki was greater than 10000 nM.
On the same count and under the same terms, the same measure for `Cc1cccc(N=C2C(=O)N(c3ccccc3)c3ccccc32)c1` [Example 93]: greater than 10000 nM; for `C=CCN1C(=O)C(=Nc2cc(Cl)cc(Cl)c2)c2ccccc21` [Example 106, 1-ALLYL-3-[(3,5-DICHLOROPHENYL)IMINO]-1,3-DIHYDRO-2H-INDOL-2-ONE]: greater than 10000 nM.

Staying with this test, now noted: pyrimidines, read-out: Ki GalR2.
As to `Cc1ccc(Nc2cc(N(C)C)nc(N3CCOCC3c3ccccc3)n2)cc1` (stereo not drawn) [Example 82], the Ki is greater than 5000 nM.
Still for that read-out and setting: the same measure for `CN(C)c1cc(NC2CC3CCC2(C)C3(C)C)nc(Nc2ccccc2)n1` (stereo not drawn) [Example 70]: 944 nM; for `COCCN(c1nc(Nc2ccc(C)cc2)cc(N(C)C)n1)C1CCCCC1` [Example 74]: 468 nM; for `CN(C)c1cc(NC2CC3CCC2C3)nc(Nc2ccccc2)n1` (stereo not drawn) [Example 69]: greater than 5000 nM.
With `CN(C)c1cc(Nc2ccc(Cl)cc2)nc(Nc2ccccc2)n1` [Example 58], the Ki was greater than 5000 nM.
The same measure, in the same setting: for `Cc1ccc(Nc2cc(N3CCCCC3)nc(N3CCOC(c4ccccc4)C3)n2)cc1` (stereo not drawn) [Example 47] the value was 3010 nM.
The same measure, in the same setting: for `Cc1ccc(Nc2cc(N3CCCCC3)nc(N3CCOCC3c3ccccc3)n2)cc1` (stereo not drawn) [Example 46] the value was greater than 5000 nM; for `Cc1ccc(Nc2cc(N3CCCCC3)nc(N3CCN(c4c(C)cccc4C)CC3)n2)cc1` [Example 27], 272 nM.
Same read-out and setting: the same measure for `Cc1ccc(Nc2cc(N3CCCCC3)nc(N3CCCC3)n2)cc1` [Example 38]: 516 nM.

For orientation: Ki means a measure of affinity in units of concentration, obtained from inhibition or displacement.
